The values that follow come from the supplement of paper PMC10307832.

Common to all, as to test: relative viability (nuclei count vs DMSO), 5 days (fraction); higher = more cells survive
Compound in assay [1]: CCc1c2c(nc3ccc(OC(=O)N4CCC(N5CCCCC5)CC4)cc13)-c1cc3c(c(=O)n1C2)COC(=O)[C@]3(O)CC [Irinotecan] + Cc1nc(Nc2ncc(C(=O)Nc3c(C)cccc3Cl)s2)cc(N2CCN(CCO)CC2)n1 [Dasatinib] (partner 0.075 µM)
The procedure, abridged: (§1)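 Each reported value is a median over duplicate plates. It expresses relative viability: treated-well nuclei count divided by vehicle-well nuclei count. Lung cancer cell lines in 1536-well plates were dosed by pin tool a day after seeding, alone with one drug or with a fixed anchor-drug dose plus five library-drug doses (not always all listed) in √10 steps, and nuclei were counted after 5 days.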

Compound in assay [2]: CC[C@@H](C)CNCC(=O)N1CCC2=C([C@@H]1COC3=CC=CC(=C3)C)C=CS2 [RU-SKI 43] + N=C(N)NC(=N)NCCc1ccccc1 [Phenformin] (partner 250 µM)
The procedure, abridged: as §1

Compound in assay [3]: CC[C@@H](C)CNCC(=O)N1CCC2=C([C@@H]1COC3=CC=CC(=C3)C)C=CS2 [RU-SKI 43] + C[C@@H](Oc1cc(-c2cnn(C3CCNCC3)c2)cnc1N)c1c(Cl)ccc(F)c1Cl [Crizotinib] (partner 1 µM)
In outline:
as §1

Compound in assay [4]: Cn1cc(-c2cnc3ccc4ccc(CS(=O)(=O)NCc5ccccn5)cc4c(=O)c3c2)cn1 [MK-8033] + CC(C)C[C@H](NC(=O)[C@H](Cc1ccccc1)NC(=O)c1cnccn1)B(O)O [Bortezomib] (partner 0.002 µM)
The procedure, abridged:
as §1

LK-2: the relative viability in assay [1] (first compound 0.6325 µM) came out at 0.251; in assay [1] (first compound 2 µM) it was 0.298; in assay [1] (first compound 6.325 µM), 0.249; in assay [1] (first compound 20 µM) it was 0.287; in assay [2] (first compound 0.1 µM) it was 0.484; in assay [2] (first compound 0.3162 µM), 0.404. Moreover, the relative viability in assay [2] (first compound 1 µM) worked out at 0.505; in assay [2] (first compound 3.162 µM), 0.811; in assay [2] (first compound 10 µM), 0.501; in assay [3] (first compound 0.1 µM), 0.206; in assay [3] (first compound 0.3162 µM) it was 0.219; in assay [3] (first compound 1 µM) it was 0.256. Also, in assay [3] (first compound 10 µM), the relative viability came out at 0.199.

With NCI-H358, the relative viability in assay [1] (first compound 0.6325 µM) was found to be 0.142; in assay [1] (first compound 2 µM), 0.151; in assay [1] (first compound 6.325 µM), 0.136; in assay [1] (first compound 20 µM), 0.105; in assay [2] (first compound 0.1 µM) it was 0.305; in assay [2] (first compound 0.3162 µM), 0.432. Moreover, the relative viability stood at 0.402 in assay [2] (first compound 1 µM); 0.436 in assay [2] (first compound 3.162 µM); 0.271 in assay [2] (first compound 10 µM); 0.604 in assay [3] (first compound 0.1 µM); 0.484 in assay [3] (first compound 0.3162 µM); 0.512 in assay [3] (first compound 1 µM). Further, the values for the relative viability in assay [3] (first compound 3.162 µM) and in assay [3] (first compound 10 µM) were 0.578 and 0.35, respectively.

Take NCI-H522: the relative viability in assay [1] (first compound 0.6325 µM) amounted to 0.639; in assay [1] (first compound 2 µM) it was 0.868; in assay [1] (first compound 6.325 µM), 0.485; in assay [1] (first compound 20 µM), 0.532; in assay [2] (first compound 0.1 µM), 0.663; in assay [2] (first compound 0.3162 µM), 0.746. Also, the relative viability turned out to be 0.749 in assay [2] (first compound 1 µM), 0.647 in assay [2] (first compound 3.162 µM) and 0.684 in assay [2] (first compound 10 µM).

Take NCI-H1299: the relative viability in assay [4] (first compound 0.02 µM) was found to be 1.03; in assay [4] (first compound 0.06325 µM), 0.997; in assay [4] (first compound 0.2 µM), 1.03; in assay [4] (first compound 0.6325 µM), 1.05; in assay [4] (first compound 2 µM), 1; in assay [3] (first compound 0.1 µM), 0.947. Also, the relative viability in assay [3] (first compound 0.3162 µM) came to 1.12; in assay [3] (first compound 1 µM), 0.995; in assay [3] (first compound 3.162 µM), 1.01; in assay [3] (first compound 10 µM), 0.957.

Regarding NCI-H1395, the relative viability came to 0.298 in assay [1] (first compound 0.6325 µM); 0.535 in assay [1] (first compound 2 µM); 0.415 in assay [1] (first compound 6.325 µM); 0.522 in assay [1] (first compound 20 µM); 0.485 in assay [2] (first compound 0.1 µM); 0.453 in assay [2] (first compound 0.3162 µM). In addition, the relative viability is 0.476 in assay [2] (first compound 1 µM), 0.421 in assay [2] (first compound 3.162 µM) and 0.433 in assay [2] (first compound 10 µM).

Regarding NCI-H1623, the relative viability in assay [1] (first compound 0.6325 µM) stood at 0.391; in assay [1] (first compound 2 µM), 0.442; in assay [1] (first compound 6.325 µM) it was 0.214; in assay [1] (first compound 20 µM) it was 0.22; in assay [2] (first compound 0.1 µM) it was 0.629; in assay [2] (first compound 0.3162 µM), 0.564. In addition, the values for the relative viability in assay [2] (first compound 1 µM), in assay [2] (first compound 3.162 µM) and in assay [2] (first compound 10 µM) were 0.619, 0.583 and 0.53, respectively.

On to NCI-H1703, for which the relative viability was 0.401 in assay [4] (first compound 0.02 µM); 0.302 in assay [4] (first compound 0.06325 µM); 0.268 in assay [4] (first compound 0.2 µM); 0.307 in assay [4] (first compound 0.6325 µM); 0.298 in assay [4] (first compound 2 µM); 0.734 in assay [3] (first compound 0.3162 µM). The relative viability turned out to be 0.61 in assay [3] (first compound 1 µM), 0.594 in assay [3] (first compound 3.162 µM) and 0.381 in assay [3] (first compound 10 µM).

Take NCI-H1793: the relative viability amounted to 0.385 in assay [1] (first compound 2 µM); 0.252 in assay [1] (first compound 6.325 µM); 0.234 in assay [1] (first compound 20 µM); 0.401 in assay [2] (first compound 0.1 µM); 0.391 in assay [2] (first compound 0.3162 µM); 0.464 in assay [2] (first compound 1 µM). Besides, the values for the relative viability in assay [2] (first compound 3.162 µM) and in assay [2] (first compound 10 µM) were 0.323 and 0.3, respectively.

NCI-H1944: the relative viability came to 0.151 in assay [1] (first compound 0.6325 µM); 0.189 in assay [1] (first compound 2 µM); 0.121 in assay [1] (first compound 6.325 µM); 0.107 in assay [1] (first compound 20 µM); 0.214 in assay [2] (first compound 0.1 µM); 0.21 in assay [2] (first compound 0.3162 µM). The relative viability worked out at 0.225 in assay [2] (first compound 1 µM); 0.213 in assay [2] (first compound 3.162 µM); 0.177 in assay [2] (first compound 10 µM); 1.17 in assay [3] (first compound 0.1 µM); 1.19 in assay [3] (first compound 0.3162 µM); 1.25 in assay [3] (first compound 1 µM). In addition, the relative viability amounted to 1.25 in assay [3] (first compound 3.162 µM) and 0.991 in assay [3] (first compound 10 µM).

Turning to NCI-H2170, the relative viability in assay [1] (first compound 0.6325 µM) worked out at 0.563; in assay [1] (first compound 2 µM), 0.663; in assay [1] (first compound 6.325 µM) it was 0.281; in assay [1] (first compound 20 µM), 0.164; in assay [2] (first compound 0.1 µM), 0.462; in assay [2] (first compound 0.3162 µM) it was 0.417. For the same cell line, the relative viability in assay [2] (first compound 1 µM) worked out at 0.395; in assay [2] (first compound 3.162 µM), 0.431; in assay [2] (first compound 10 µM), 0.403; in assay [3] (first compound 0.1 µM) it was 1.26; in assay [3] (first compound 0.3162 µM) it was 1.42; in assay [3] (first compound 1 µM), 1.49. The results for the relative viability in assay [3] (first compound 3.162 µM) and in assay [3] (first compound 10 µM) were 1.22 and 1.07, respectively.

NCI-H2342: the relative viability in assay [1] (first compound 0.6325 µM) is 0.304; in assay [1] (first compound 2 µM), 0.278; in assay [1] (first compound 6.325 µM), 0.299; in assay [1] (first compound 20 µM), 0.377; in assay [2] (first compound 0.1 µM), 0.606; in assay [2] (first compound 0.3162 µM) it was 0.562. For the same cell line, the relative viability turned out to be 0.584 in assay [2] (first compound 1 µM), 0.528 in assay [2] (first compound 3.162 µM) and 0.634 in assay [2] (first compound 10 µM).

Turning to SK-MES-1, the relative viability worked out at 0.293 in assay [1] (first compound 0.6325 µM); 0.284 in assay [1] (first compound 2 µM); 0.22 in assay [1] (first compound 6.325 µM); 0.186 in assay [1] (first compound 20 µM); 0.645 in assay [2] (first compound 0.1 µM); 0.778 in assay [2] (first compound 0.3162 µM). Further, the relative viability in assay [2] (first compound 1 µM) amounted to 0.725; in assay [2] (first compound 3.162 µM), 0.716; in assay [2] (first compound 10 µM) it was 0.63; in assay [3] (first compound 0.1 µM) it was 0.862; in assay [3] (first compound 0.3162 µM), 1.07; in assay [3] (first compound 1 µM) it was 1.06. In addition, the relative viability in assay [3] (first compound 3.162 µM) came to 1.09; in assay [3] (first compound 10 µM), 0.98.

SW 900: the relative viability in assay [1] (first compound 0.6325 µM) amounted to 0.688; in assay [1] (first compound 2 µM), 0.707; in assay [1] (first compound 6.325 µM) it was 0.509; in assay [1] (first compound 20 µM), 0.488; in assay [2] (first compound 0.1 µM) it was 0.626; in assay [2] (first compound 0.3162 µM), 0.64. The values for the relative viability in assay [2] (first compound 1 µM), in assay [2] (first compound 3.162 µM) and in assay [2] (first compound 10 µM) were 0.785, 0.687 and 0.611, respectively.
